What all share (format): cell-based
Experiment [1] relates to N. cinerea. Description: Radial diffusion growth inhibition test according to Lehrer et al. The conditions noted are these: for growth-inhibiting effect: Gram-negative bacteria. The source says: (§1) The peptides to which this invention relates are members of the family of natriuretic peptides. […] The form of ANP which occurs in the kidneys, urodilatin, was first isolated in 1988 by Forssmann et al. (Schulz-Knappe et al., 1988). […] A useful test for recognizing antibiotic activity is the growth inhibition test of Lehrer et al. (Lehrer et al. J. Immun. Methods, Vol. 137, p. 167, 1991).
(§2) Radial diffusion growth inhibition test with Streptococcus carnosus and N. cinerea according to Lehrer et al. (Lehrer et al., J. Immun. Methods, Vol. 137, p. 167, 1991).
(§3) The purity and identity of the peptides is determined by mass spectrometry (quadrupole electrospray mass spectrometry, Sciex API 111, Perkin Elmer) and sequencing in a gas-phase sequencer (model 470, Applied Biosystems, Weiter-stadt) and checked by capillary zone electrophoresis. The biological activity is verified by the growth inhibition test.

In experiment [2] the test system is Streptococcus carnosus. The description is as above. Conditions: for growth-inhibiting effect: Gram-positive bacteria.
Source text: as §1, §2, §3

Experiment [3] relates to B. subtilis. As to the kind of experiment: Growth inhibition test. The conditions noted are these: Gram-positive bacteria. The procedure: as §1, §3
In experiment [4] the test system is E. coli. Description: Growth inhibition test. The conditions noted are these: Gram-negative bacteria. The procedure: as §1, §3
Experiment [5] concerns M. luteus. Description: Growth inhibition test. The conditions noted are these: Gram-positive bacteria. As for the experimental part: as §1, §3
The subject of experiment [6] is P. fluorescens. Description: Growth inhibition test. The conditions noted are these: Gram-negative bacteria. As for the experimental part:
as §1, §3

For experiment [7], the system named is S. cerevisiae. As to the kind of experiment: Growth inhibition test. Conditions: yeast S. cerevisiae. The procedure:
as §1, §3

Setting [8] is: after application of 1 μg, Streptococcus carnosus.

As to `CC[C@H](C)[C@@H]1NC(=O)[C@H](CCCNC(=N)N)NC(=O)[C@H](CC(=O)O)NC(=O)[C@H](CCSC)NC(=O)[C@H](CCCNC(=N)N)NC(=O)CNC(=O)CNC(=O)[C@H](Cc2ccccc2)NC(=O)[C@@H](NC(=O)[C@H](CO)NC(=O)[C@H](CO)NC(=O)[C@H](CCCNC(=N)N)NC(=O)[C@H](CCCNC(=N)N)NC(=O)[C@H](CC(C)C)NC(=O)[C@@H](N)CO)CSSC[C@@H](C(=O)N[C@@H](CC(N)=O)C(=O)N[C@@H](CO)C(=O)N[C@@H](Cc2ccccc2)C(=O)N[C@@H](CCCNC(=N)N)C(=O)N[C@@H](Cc2ccc(O)cc2)C(=O)O)NC(=O)CNC(=O)[C@H](CC(C)C)NC(=O)CNC(=O)[C@H](CO)NC(=O)[C@H](CCC(N)=O)NC(=O)[C@H](C)NC(=O)CNC1=O` [ANP], the growth-inhibiting effect entry in experiment [1], in experiment [2] (S. carnosus), in experiment [3], in experiment [4], in experiment [5] and in experiment [6] was “growth-inhibiting effect” throughout. Moreover, the growth-inhibiting effect result in experiment [7] is “growth-inhibiting effect”. For the same molecule, the inhibition halos entry in experiment [1] (after application of 1 μg) and in experiment [2] (setting [8]) was “inhibition halos can be observed” each time.
On to “Gly-Leu-Ser-Lys-Gly-Cys-Phe-Gly-Leu-Lys-Leu-Asp-Arg-Ile-Gly-Ser-Met-Ser-Gly-Leu-Gly-Cys (GLSKGCFGLKLDRIGSMSGLGC; listed as Homo sapiens) [CNP]”, for which the inhibition halos result is “inhibition halos can be observed” in experiment [1] (after application of 11 μg) and “inhibition halos can be observed” in experiment [2] (after application of 7 μg, S. carnosus).
On to “Thr-Ala-Pro-Arg-Ser-Leu-Arg-Arg-Ser-Ser-Cys-Phe-Gly-Gly-Arg-Met-Asp-Arg-Jle-Gly-Ala-Gln-Ser-Gly-Leu-Gly-Cys-Asn-Ser-Phe-Arg-Tyr [urodilatin]”, for which the growth-inhibiting effect entry in experiment [1], in experiment [2] (S. carnosus), in experiment [3], in experiment [4], in experiment [5] and in experiment [6] was “growth-inhibiting effect” in each case. For the same molecule, the growth-inhibiting effect result in experiment [7] is on record as “growth-inhibiting effect”. In addition, the inhibition halos result in experiment [1] (after application of 1 μg) and in experiment [2] (setting [8]) was “inhibition halos can be observed” throughout.

Source of the values: patent publication US7033997B2, “Use of natriuretic peptides as antibiotically active substances for the treatment of bacterial infections” (Pharis Biotec GmbH, priority 1999, dated 2006).
